Values joined by “and” are separate entries in the source; they are usually repeats but may differ in a detail not shown here. Equal values may be shown once. Where a name gives a salt, the structure may show the parent alone. Read-outs that look alike come from different tables or passages of the source.
How the values were obtained:
[1] = tested on: VCaP human prostate cancer cells; experiment: VCaP proliferation assay (CellTiter-Glo), single agents and combination index; type: cell-based
Description: (§1) Cell lines derived from human prostate cancer metastasis were used (Table 1).
(§2) After one day, the cells were treated with R1881 (10 nM) and 1 nM to 10 μM compounds (day 0). Cell number was determined following addition of CellTiter-Glo® (Promega) at day 0 and day 6. Luminescence was determined in a Victor X3 device (PerkinElmer). The inhibition of cell growth was calculated by normalization with respect to the luminescence reading (cell number) measured at the end of the experiment for cells treated with R1881 alone compared to the fluorescence reading (cell number) measured at the end of the experiment for DMSO-treated cells. […] After one day, the cells were treated with R1881 (0.1 nM) and 1 nM to 10 μM compounds (day 0). Cell number was determined following addition of CellTiter-Glo® (Promega) at day 0 and day 6. Luminescence was determined in a Victor X3 device […]. The inhibition of cell growth was calculated by normalization with respect to the luminescence reading (cell number) measured at the end of the experiment for cells treated with R1881 alone compared to the fluorescence reading (cell number) measured at the start of the experiment for DMSO-treated cells.
(§3) The Combination Index (CI) was determined for the two compound ratios closest to the ratio of the respective IC50 values of each compound alone.

[2] = tested on: LAPC-4 human prostate cancer cells; experiment: LAPC-4 proliferation assay (CellTiter-Glo), single agents and combination index; type: cell-based
Description: as §1, §2, §3

PI3K isoforms = conditions: cited from earlier work
mTOR = mTOR (Homo sapiens, UniProt P42345); conditions: cited from earlier work
androgen receptor [3] = biological target: androgen receptor (Homo sapiens, UniProt P10275); conditions: cited from earlier work
androgen receptor [4] = conditions: cited from earlier work
[5] = Homo sapiens, VCaP, 144 h, VCaP cells, single agent, R1881 0.1 nM, day 6, read-out: Compound A IC50
[6] = Homo sapiens, LAPC4, 144 h, LAPC-4 cells, single agent, R1881 10 nM, day 6, read-out: Compound A IC50

androgen receptor (Homo sapiens, UniProt P10275), sequence (P10275 whole entry, species assumed): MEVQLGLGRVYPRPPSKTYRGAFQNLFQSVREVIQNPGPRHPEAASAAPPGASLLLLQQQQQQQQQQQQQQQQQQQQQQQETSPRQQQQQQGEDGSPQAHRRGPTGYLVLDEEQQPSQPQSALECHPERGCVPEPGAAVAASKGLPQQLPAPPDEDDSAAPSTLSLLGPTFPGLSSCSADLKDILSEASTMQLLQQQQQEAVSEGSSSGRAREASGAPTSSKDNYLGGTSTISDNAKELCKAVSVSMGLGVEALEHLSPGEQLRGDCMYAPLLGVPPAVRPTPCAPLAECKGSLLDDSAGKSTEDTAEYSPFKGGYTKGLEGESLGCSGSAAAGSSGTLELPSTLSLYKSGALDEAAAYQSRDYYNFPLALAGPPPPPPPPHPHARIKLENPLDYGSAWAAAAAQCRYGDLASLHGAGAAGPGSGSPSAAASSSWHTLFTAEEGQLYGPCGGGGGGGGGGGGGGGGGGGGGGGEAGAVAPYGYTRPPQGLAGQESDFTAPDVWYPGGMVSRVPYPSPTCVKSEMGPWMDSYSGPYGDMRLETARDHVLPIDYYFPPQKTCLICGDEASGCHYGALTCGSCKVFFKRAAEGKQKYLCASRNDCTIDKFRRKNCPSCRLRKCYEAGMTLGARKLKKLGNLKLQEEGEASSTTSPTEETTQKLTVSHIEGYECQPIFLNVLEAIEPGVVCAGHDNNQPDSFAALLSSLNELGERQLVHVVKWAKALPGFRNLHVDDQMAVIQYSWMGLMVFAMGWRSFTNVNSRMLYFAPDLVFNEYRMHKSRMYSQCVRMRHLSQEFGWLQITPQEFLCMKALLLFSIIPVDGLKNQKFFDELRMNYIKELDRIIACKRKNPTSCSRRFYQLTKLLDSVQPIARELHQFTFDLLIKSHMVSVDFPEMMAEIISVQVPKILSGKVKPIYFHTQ

| IC50 [1, 5] [nM] | IC50 [2, 6] [nM] | IC50 ([2]; LAPC-4 cells, single agent, R1881 10 nM, day 6, read-out: Compound A IC50) [nM] | IC50 ([2]; LAPC-4 cells, single agent, R1881 10 nM, day 6, dihydrochloride, read-out: Compound A IC50) [nM] | SMILES | activity against PI3K isoforms (PI3K isoforms) | activity against mTOR (mTOR) | inhibition of transactivation function (androgen receptor [3]) | IC50 ([1]; Homo sapiens, VCaP, 144 h, read-out: Compound B IC50, VCaP cells, single agent, R1881 0.1 nM, day 6) [nM] | IC50 ([1]; read-out: Compound B IC50, VCaP cells, single agent, R1881 0.1 nM, day 6) | binding affinity for the androgen receptor (androgen receptor [4]) | IC50 ([2]; Homo sapiens, LAPC4, 144 h, read-out: Compound B IC50, LAPC-4 cells, single agent, R1881 10 nM, day 6) [nM] | IC50 ([2]; read-out: Compound B IC50, LAPC-4 cells, single agent, R1881 10 nM, day 6) [nM] |
| --- | --- | --- | --- | --- | --- | --- | --- | --- | --- | --- | --- | --- |
| 52 | 12 | 13 | – | Cc1c(CN2CCN(C(=O)[C@H](C)O)CC2)sc2c(N3CCOCC3)nc(-c3cnc(N)nc3)nc12 [Apitolisib] | low nanomolar | low nanomolar | – | – | – | – | – | – |
| 9 | 41 | – | 49 | COc1c(OCCCN2CCOCC2)ccc2c1N=C(NC(=O)c1cnc(N)nc1)N1CCN=C21 [Copanlisib, 2-amino-N-[7-methoxy-8-(3-morpholin-4-ylpropoxy)-2,3-dihydroimidazo[1,2-c]quinazolin-5-yl]pyrimidine-5-carboxamide dihydrochloride] | – | – | – | – | – | – | – | – |
| 26 | – | – | – | Cn1c(=O)n(-c2ccc(C(C)(C)C#N)cc2)c2c3cc(-c4cnc5ccccc5c4)ccc3ncc21 [Dactolisib] | low nanomolar | low nanomolar | – | – | – | – | – | – |
| – | – | – | – | CC(O)c1cc(C(=O)N[C@@H](C)Cn2ccc(-c3ccc(C#N)c(Cl)c3)n2)[nH]n1 (some centres unmarked) [Darolutamide] | – | – | high inhibition | 350 | 417 nM and 557 nM | low nanomolar | 263 | 366 |
